The text below walks through data of patent publication EP0083204A2, “2-Aminophenol derivatives and process for their preparation” (ONO PHARMACEUTICAL CO., LTD., priority 1981, dated 1983).

The target of data set [1] is T1, 5-lipoxygenase (Cavia porcellus, UniProt A0A286X958).
T1 construct: The supernate was used as an enzyme throughout this work; from tissue; host or cells: 105,000 x g supernatant of sonicated, casein-elicited guinea pig polymorphonuclear leukocytes
T1 sequence (A0A286X958 1-674): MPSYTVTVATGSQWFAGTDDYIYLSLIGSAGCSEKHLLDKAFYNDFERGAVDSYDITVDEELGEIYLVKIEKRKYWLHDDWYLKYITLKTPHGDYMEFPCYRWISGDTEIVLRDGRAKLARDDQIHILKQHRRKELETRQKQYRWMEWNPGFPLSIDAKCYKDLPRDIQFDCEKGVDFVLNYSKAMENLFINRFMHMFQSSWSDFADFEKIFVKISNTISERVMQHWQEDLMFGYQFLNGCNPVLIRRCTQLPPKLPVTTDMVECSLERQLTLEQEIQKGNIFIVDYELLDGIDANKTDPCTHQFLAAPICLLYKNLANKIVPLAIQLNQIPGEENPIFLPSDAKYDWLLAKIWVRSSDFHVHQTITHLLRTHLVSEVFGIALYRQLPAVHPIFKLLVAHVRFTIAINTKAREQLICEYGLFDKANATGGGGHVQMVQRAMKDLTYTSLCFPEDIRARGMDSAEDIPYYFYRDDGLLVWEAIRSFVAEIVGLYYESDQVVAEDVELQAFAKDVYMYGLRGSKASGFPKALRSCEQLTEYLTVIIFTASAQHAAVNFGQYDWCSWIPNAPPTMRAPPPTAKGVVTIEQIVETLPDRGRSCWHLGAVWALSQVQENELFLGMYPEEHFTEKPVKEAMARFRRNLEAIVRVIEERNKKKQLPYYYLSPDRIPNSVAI
The data set can be described thus: assay system evaluating only the inhibitory activity on 5-lipoxygenase (105,000 x g supernate of sonicated polymorphonuclear leukocytes). It is filed as biochemical. Conditions: supernate of sonicated guinea pig polymorphonuclear leukocytes, 30°C, 5 minutes, 1 mM calcium chloride; production of 5-HETE, 5,12-diHETE and leukotriene B; read-out: concentrations required to produce 50% inhibitions on 5-lipoxygenase. The method, then:
The experiments for evaluating only the inhibitory activity on 5-lipoxygenase were carried out as follows: Guinea pig was treated by casein and harvested polymorphonuclear leukocytes from cavity were sonicated, followed by the centrifugation at 105,000 x g. The supernate was used as an enzyme throughout this work. The supernate (100 - 500 ug of protein) was incubated for 5 minutes at 30°C with [^14C] arachidonic acid and 1 mM calcium chloride in the presence or in the absence of test compound. The reaction was terminated by the addition of ether. Ether extract was separated by thin layer chromatography using silica gel plates to observe production of 5-HETE, 5,12-diHETE and leukotriene B. In this assay system, the concentrations for 50% inhibitions on 5- lipoxygenase were evaluated by using the concentrations of compounds of the present invention required 50% inhibitions on the production of 5-HETE, 5,12-diHETE and leukotrien B.

Another data set concerns mice. As to the kind of experiment: acute toxicity by intravenous administration. It is filed as in vivo, mouse. Conditions: intravenously administered to tail vein in ten mice at the dose of 30 mg/kg. The method, then: On the other hand, all extent of the compounds of the present invention were confirmed that their acute toxicities were more than 30 mg/kg by intravenous administration. Therefore, 2-aminophenol derivatives of the present invention may be considered to be sufficiently safe and suitable for medical use.

The target of data set [2] is T1, 5-lipoxygenase. As to the kind of experiment: standard assay system using polymorphonuclear leukocytes (production of 5-HETE from [14C] arachidonic acid). It is filed as cell-based. Conditions: intact polymorphonuclear leukocytes from guinea pig, 4 x 10^7 cells, 37°C, 5 minutes, read-out: concentrations for 50% inhibitions on 5-lipoxygenase. The method, then: (§1) For example, in standard assay system using polymorphonuclear leukocytes from guinea pig (details of experiments were described hereafter), (a) the concentrations of 2-amino-4-(4-methylphenylthio)phenol hydrochloride for 50% inhibitions on 5-lipoxygenase and on cyclooxygenase were 0.2 µM and 0.3 µM, respectively, (b) the concentrations of 2-amino-4-phenylthiophenol hydrochloride for 50% inhibitions on 5- lipoxygenase and on cyclooxygenase were 0.1 µM and 0.3 uM, respectively and (c) the concentrations of 2-amino-4-(4-chlorophenylthio)phenol hydrochloride for 50% inhibitions on 5-lipoxygenase and on cyclooxygenase were 0.5 µM and 0.3 µM, respectively. Therefore, it is comfirmed that these compounds (a), (b) and (c) inhibit both 5-lipoxygenase and cyclooxygenase at the same time at very low concentrations.
(§2) The experiments for screening using polymorphonuclear leukocytes were carried out as follows: The reaction mixture (0.1 ml) containing 5 µmole of potassium phosphate at pH 7.4, 0.1 µmole of calcium chloride, polymorphonuclear leukocytes prepared from guinea pigs (4 x 10^7 cells) and test compound, was preincubated for 5 minutes at 37°C. The reaction was started by the addition of [^14C] arachidonic acid ([…] dpm, 1.8 nmole), followed by the incubation at 37°C for 5 minutes. The reaction was terminated by the addition of 0.3 ml of a mixture of ether/ methanol/lM citric acid (30/4/1). The organic phase (20 µl) was applied to silica gel plate. Thin layer chromatography was performed to separate each product with solvent system of ether/petroleum ether/acetic acid (85/15/0.1).
(§3) Activity of 5-lipoxygenase and cyclooxygenase were calculated from the measurements of the production of 5-HETE, and 12L-hydroxy-5,8,10-[…] acid (i.e. HHT) or thromboxane B2 (i.e. TXB2), respectively [it has been known that HHT and TXB2 are the last products of the system concerning cyclooxygenase in the arachidonate cascade]. […]

In a further data set the test system is cyclooxygenase. As to the kind of experiment: standard assay system using polymorphonuclear leukocytes (production of HHT or TXB2 from [14C] arachidonic acid). It is filed as cell-based. The settings on record: intact polymorphonuclear leukocytes from guinea pig, 4 x 10^7 cells, 37°C, 5 minutes, read-out: concentrations for 50% inhibitions on cyclooxygenase. The method, then:
as §1, §2, §3

Where a name gives a salt, the structure may show the parent alone.

`Nc1cc(Sc2ccccc2)ccc1O` [2-amino-4-phenylthiophenol hydrochloride, 2-Amino-4-phenylthiophenol hydrochloride]: the IC50 at 5-lipoxygenase [1] stood at 310 nM; on 5-lipoxygenase [2], 100 nM; in the data set on cyclooxygenase, 300 nM. Moreover, in the data set with mice, the mortality result is on record as “no mouse was dead”.
Regarding `Nc1cc(Sc2ccc(Cl)cc2)ccc1O` [2-Amino-4-(4-chlorophenylthio)phenol hydrochloride], the IC50 at 5-lipoxygenase [1] turned out to be 300 nM; on 5-lipoxygenase [2] it was 500 nM; in the data set with cyclooxygenase, 300 nM.
`Nc1cc(C#Cc2ccccc2)ccc1O` [2-amino-4-phenylethynylphenol, 2-Amino-4-phenylethynylphenol]: the IC50 at 5-lipoxygenase [1] is 690 nM. For the same molecule, the mortality entry in the data set on mice is reported as “no mouse was dead”.
For `Nc1cc(Sc2ccc(O)c(N)c2)ccc1O` [2-Amino-4-(3-amino-4-hydroxyphenylthio)phenol], at 5-lipoxygenase [1], the IC50 worked out at 1500 nM.
Still for that read-out and setting: the result for `Cc1cc(C)c(Sc2ccc(O)c(N)c2)c(C)c1` [2-Amino-4-(2,4,6-trimethylphenylthio)phenol hydrochloride] reads 480 nM; that for `Nc1cc([S+]([O-])c2ccccc2)ccc1O` (stereo not drawn) [2-amino-4-benzenesulfinylphenol, 2-Amino-4-benzenesulfinylphenol], 11000 nM; that for `Nc1cc(Sc2ccc(O)cc2)ccc1O` [2-amino-4-(4-hydroxyphenylthio)phenol, 2-Amino-4-(4-hydroxyphenylthio)phenol], 460 nM.
Turning to `Cc1ccc(Sc2ccc(O)c(N)c2)cc1.Cl` [2-Amino-4-(4-methylphenylthio)phenol hydrochloride], the IC50 stood at 200 nM at 5-lipoxygenase [1], 200 nM at 5-lipoxygenase [2] and 300 nM with cyclooxygenase. Also, the mortality result in the data set on mice is listed as “no mouse was dead”.
On to `Nc1cc(NC(=O)c2ccccc2)ccc1O` [N-(3-Amino-4-hydroxyphenyl)benzamide hydrochloride], for which the IC50 at 5-lipoxygenase [1] was 18000 nM.
Take `Cl.Nc1cc(-c2nc3ccccc3s2)ccc1O` [2-Amino-4-(2-benzothiazolyl)phenol hydrochloride]: the IC50 at 5-lipoxygenase [1] stood at 230 nM. For the same molecule, in the data set on mice, the mortality entry was “no mouse was dead”.
In the case of `CC(C)(C)c1ccc(Sc2ccc(O)c(N)c2)cc1` [2-Amino-4-(4-tert-butylphenylthio)phenol hydrochloride], the IC50 at 5-lipoxygenase [1] is 320 nM.
